# Calls of active or inactive are those of the source. The calls are words filed in the database; no cut-off is given here.
# What was measured:
# [1] = Metabolic stability in rat plasma assessed as parent compound remaining incubated for 60 mins in presence of NADPH by UPLC-MS analysis; assay type: ADME, cell-free; details: read-out: Stability
# MDA-MB-231 = assay: Antiproliferative activity against human MDA-MB-231 cells assessed as reduction in cell viability after 48 hrs by MTT assay; details: MDA-MB-231, 48 h
# [2] = biological target: T1, Estrogen receptor (Homo sapiens) (UniProt P03372); assay: Induction of ERalpha degradation in human MCF7 cells assessed as decrease in ERalpha protein expression at 1 uM incubated for 24 hrs by Western blot analysis; assay type: cell-based
# T1 sequence (whole entry): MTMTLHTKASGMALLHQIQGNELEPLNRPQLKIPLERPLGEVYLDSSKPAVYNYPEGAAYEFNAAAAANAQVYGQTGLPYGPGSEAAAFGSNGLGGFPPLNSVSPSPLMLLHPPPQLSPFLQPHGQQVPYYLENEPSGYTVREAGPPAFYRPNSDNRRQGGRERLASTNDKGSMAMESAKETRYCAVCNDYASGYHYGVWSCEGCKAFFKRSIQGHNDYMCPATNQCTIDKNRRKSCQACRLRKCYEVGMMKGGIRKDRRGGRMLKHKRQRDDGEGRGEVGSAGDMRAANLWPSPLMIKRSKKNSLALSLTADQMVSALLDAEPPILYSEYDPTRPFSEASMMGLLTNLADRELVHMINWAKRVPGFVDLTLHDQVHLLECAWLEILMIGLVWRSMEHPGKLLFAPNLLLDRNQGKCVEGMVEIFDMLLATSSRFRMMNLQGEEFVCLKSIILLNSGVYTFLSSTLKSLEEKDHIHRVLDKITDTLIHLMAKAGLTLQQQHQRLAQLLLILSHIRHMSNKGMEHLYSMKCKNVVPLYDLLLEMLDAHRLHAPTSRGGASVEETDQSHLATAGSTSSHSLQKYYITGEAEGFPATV
# [3] = Antiproliferative activity against human MCF-10A cells assessed as reduction in cell viability after 48 hrs by MTT assay; assay type: toxicity, cell-based
# MCF7 [4] = assay: Induction of apoptosis in human MCF7 cells assessed as increase in cytochrome C protein level at 0.5 to 3 uM and measured after 24 hrs Western blot analysis relative to control; assay type: functional, cell-based; details: dose 0.5-3 µM
# [5] = biological target: T1, Estrogen receptor (Homo sapiens); assay: Induction of ERalpha degradation in human MCF7 cells assessed as ERalpha level at 3 uM measured after 24 hrs in presence of HyT by Western blot analysis; assay type: cell-based
# MCF7 [6] = assay: Inhibition of colony formation in human MCF7 cells at 2 uM measured after 9 days by crystal violet staining based assay relative to control; assay type: functional, cell-based; details: time 9.0 day
# MCF7 [7] = assay: Induction of apoptosis in human MCF7 cells assessed as increase in Bax protein level at 0.5 to 3 uM and measured after 24 hrs Western blot analysis relative to control; assay type: functional, cell-based; details: dose 0.5-3 µM
# [8] = biological target: T1, Estrogen receptor (Homo sapiens); assay: Induction of ERalpha degradation in human MCF7 cells assessed as decrease in ERalpha protein expression at 3 uM measured upto 24 hrs by Western blot analysis; assay type: cell-based; details: time hrs <=24, TDE = time-dependent effect
# MCF7 [9] = assay: Induction of mitochondrial membrane potential loss in human MCF7 cells at 2 uM measured after 24 hrs by JC-1 staining based flow cytometry; assay type: functional, cell-based
# MCF7 [10] = assay: Antiproliferative activity against human MCF7/ADR cells assessed as reduction in cell viability after 48 hrs by MTT assay; assay type: functional, cell-based; details: MCF7, 48 h
# [11] = biological target: T1, Estrogen receptor (Homo sapiens); assay: Induction of ERalpha degradation in human MCF7 cells assessed as ERalpha level at 3 uM measured after 24 hrs in presence of proteasome inhibitor MG132 by Western blot analysis; assay type: cell-based
# MCF7 [12] = assay: Effect on cell morphology in human MCF7 cells assessed as appearance of round cells at 0.5 to 2 uM measured after 24 hrs by Hoechst 33342 staining based fluorescence microscopy; assay type: functional; details: dose 0.5-2 µM
# MCF7 [13] = assay: Induction of apoptosis in human MCF7 cells assessed as early apoptotic cells at 2 uM incubated for 24 hrs by annexin-V and PI staining based flow cytometry analysis relative to control; assay type: functional
# [14] = Resistance index, ratio of IC50 for antiproliferative activity against human MCF7/ADR cells to IC50 for antiproliferative activity against human MCF7 cells; assay type: functional
# MCF7 [15] = assay: Cell cycle arrest in human MCF7 cells assessed as accumulation at G1 phase at 1 uM measured after 24 hrs by propidium iodide staining based flow cytometry (reference value: 73.45 %); assay type: functional
# MCF7 [16] = assay: Inhibition of colony formation in human MCF7 cells at 0.5 uM measured after 9 days by crystal violet staining based assay relative to control; assay type: functional, cell-based; details: time 9.0 day
# MCF7 [17] = assay: Induction of ROS generation in human MCF7 cells assessed as increase in intracellular ROS level at 2 uM measured after 24 hrs by DCFH-DA staining based flow cytometry method (reference value: 19.02%); assay type: functional
# [18] = biological target: T1, Estrogen receptor (Homo sapiens); assay: Induction of ERalpha degradation in human MCF7 cells assessed as decrease in ERalpha protein expression at 0.5 to 3 uM for 24 hrs by Western blot analysis; assay type: cell-based; details: dose 0.5-3 µM
# MCF7 [19] = assay: Induction of apoptosis in human MCF7 cells assessed as early apoptotic cells at 1 uM incubated for 24 hrs by annexin-V and PI staining based flow cytometry analysis relative to control; assay type: functional
# MCF7 [20] = assay: Induction of mitochondrial membrane potential loss in human MCF7 cells measured after 24 hrs by JC-1 staining based flow cytometry; assay type: functional, cell-based
smiles,measurement,setting,value
CC1=CC(=O)[C@H]2/C(C=O)=C\C[C@H]3[C@@H]([C@@H](C)/C=C\C=C/C(=O)OCCOCCOCCOC(=O)CC45CC6CC(CC(C6)C4)C5)CC[C@]3(C)C[C@H]12,remaining at 1 h,[1],81%
same,IC50,MDA-MB-231,0.31 µM
same,Activity,[2],Active
same,IC50 at 48 h,[3],2.19 µM
same,Activity,MCF7 [4],Active
same,Activity,[5],Active
same,inhibition,MCF7 [6],Active
same,Activity,MCF7 [7],Active
same,Activity,[8],Tde
same,Activity,MCF7 [9],Active
same,IC50,MCF7 [10],0.48 µM
same,Activity,[11],inactive
same,Activity,MCF7 [12],Active
same,Activity,MCF7 [13],32.3%
same,Ratio IC50,[14],1.17
same,Activity,MCF7 [15],78.07%
same,inhibition,MCF7 [16],Active
same,Activity,MCF7 [17],58.14%
same,Activity,[18],Dose-Dependent Effect
same,Activity,MCF7 [19],14.1%
same,Activity,MCF7 [20],Active

# — ChEMBL document CHEMBL5042519, “Design and synthesis of marine sesterterpene analogues as novel estrogen receptor α degraders for breast cancer treatment” (Eur J Med Chem, 2022)
